Entries after “also recorded” stand apart in the source; their conditions may differ.
How the values were obtained:
Orx2 = target: T1, Orx2 (Homo sapiens, UniProt O43614); experiment: Orx2 antagonist screening, chemiluminescent cell assay with Orexin B EC80; type: cell-based; details: for % Agonism Orx2 at Relative IC50: absolute percent agonism at the μM concentration of the relative OR2 IC50; for IC50: antagonist mode against Orexin B EC80, read-out: Relative IC50 of Orx2; for IC50 Dilution of Orx2 (fold dilution): concentration of the fraction of the plant source, in fold dilution, needed to achieve IC50 of OR2
T1 construct: DiscoverX
T1 sequence (O43614 1-444): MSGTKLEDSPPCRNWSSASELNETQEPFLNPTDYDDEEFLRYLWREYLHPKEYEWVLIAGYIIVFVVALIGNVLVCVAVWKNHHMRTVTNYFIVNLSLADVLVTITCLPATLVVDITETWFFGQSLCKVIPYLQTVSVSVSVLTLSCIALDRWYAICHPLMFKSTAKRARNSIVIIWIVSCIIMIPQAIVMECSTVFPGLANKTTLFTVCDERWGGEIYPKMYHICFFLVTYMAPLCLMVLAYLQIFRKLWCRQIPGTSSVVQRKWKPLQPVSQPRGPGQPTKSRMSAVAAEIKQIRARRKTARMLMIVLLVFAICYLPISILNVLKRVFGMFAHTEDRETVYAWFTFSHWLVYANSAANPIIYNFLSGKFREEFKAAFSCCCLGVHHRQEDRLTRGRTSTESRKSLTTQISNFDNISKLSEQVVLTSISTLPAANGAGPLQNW
Protocol: For this example, the following protocol was used: 1.) seed cells in 20 μL Cell Plating Reagent; 2.) incubate cells overnight at 37° C. and 5% CO2; 3.) treat cells with 2.5 μL 10× antagonist prepared in Compound Dilution Buffer (For OR2 screening, 2.5 μL of 1:100 natural product sample in DiscoverX cell plating reagent. Control antagonist, Seltorexant, 10× stock was prepared at 1500 nM); 4.) incubate for 30 minutes at 37° C. and 5% CO2; 5.) treat cells with 2.5 μL 10× agonist prepared in Compound Dilution Buffer (For OR2 screening, 2.5 μL of 10× Orexin B EC80, 252.7 nM); 6.) incubate for 90 minutes at 37° C. and 5% CO2; 7.) add 12.5 μL Working Detection Solution; 8.) incubate for 1 hour at room temperature in the dark; and 9.) read chemiluminescent signal.
(§1) The plants described herein were tested to determine the concentration, in μM, to achieve the relative IC50 of OR2 receptor, the absolute percent agonism achieved at the μM concentration of the relative OR2 IC50, the percentage receptor activity at the concentration, in μM, needed to achieve IC50 in OR2, the percentage cell viability, measured by XTT assay, at the IC50 μM concentration, the concentration of the fraction, in fold dilution, needed to achieve IC50 of OR2, and the percentage receptor activity at the concentration of the fraction, in fold dilution, needed to achieve IC50 of OR2.

cells = experiment: cell viability, XTT assay; type: cell-based; details: at the IC50 μM concentration of the compound
Protocol: as §1

Orx1 = target: T2, Orx1 (Homo sapiens, UniProt O43613); experiment: % agonism on Orx1 at the OR2 IC50 concentration; type: cell-based; details: at the μM concentration needed to achieve IC50 in OR2
T2 sequence (O43613 1-425): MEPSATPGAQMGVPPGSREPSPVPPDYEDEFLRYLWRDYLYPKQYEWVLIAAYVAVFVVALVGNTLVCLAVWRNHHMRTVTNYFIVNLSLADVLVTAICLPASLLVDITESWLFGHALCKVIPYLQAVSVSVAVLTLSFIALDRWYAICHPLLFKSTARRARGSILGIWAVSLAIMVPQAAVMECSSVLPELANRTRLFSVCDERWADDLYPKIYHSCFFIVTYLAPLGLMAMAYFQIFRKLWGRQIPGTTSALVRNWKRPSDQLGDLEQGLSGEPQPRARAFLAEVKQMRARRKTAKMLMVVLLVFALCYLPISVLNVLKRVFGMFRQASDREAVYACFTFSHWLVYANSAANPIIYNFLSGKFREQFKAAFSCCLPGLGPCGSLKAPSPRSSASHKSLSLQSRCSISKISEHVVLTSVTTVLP
Protocol: For this example, the following protocol was used: 1.) seed cells in 20 μL Cell Plating Reagent; 2.) incubate cells overnight at 37° C. and 5% CO2; 3.) treat cells with 2.5 μL 10× antagonist prepared in Compound Dilution Buffer (For OR2 screening, 2.5 μL of 1:100 natural product sample in DiscoverX cell plating reagent.
as §1

male Sprague-Dawley rat = experiment: in vivo tolerability, dose escalation, adverse effect observation; details: for 15 min effects (adverse effects) / 30 min effects (adverse effects) / 60 min effects (adverse effects): n=3 rats, (x/3) animals affected; for tolerability: all four doses (30, 100, 315 and 500 mg/kg) p.o., 60 min observation
Protocol: In this example, the in vivo tolerability of Compounds 26, 21, 29, and 13 was assessed.
Naïve rats (male Sprague-Dawley rat) were acclimatized to the procedure room in their home cages up to 7 days following arrival to the test facility, with food and water available ad libitum. On the day of experiment, animals were acclimatized to the experimental room for at least one hour prior to the beginning of any experiment. All animals were tail marked, weighed and randomly assigned to treatment groups. The animals (n=3 per dose) were treated with either Compounds 26, 21, 29, and 13 (10 mL/kg, p.o.). For each compound a maximum of 4 doses were tested using a dose escalation procedure starting from 30 mg/kg. If this initial dose is well-tolerated, the dosage is increased to 100 mg/kg. If the 30 mg/kg dose is not tolerated, the dose is reduced to 15 mg/kg. Following the dose escalation procedure, if the 100 mg/kg dose is well-tolerated, the dose is escalated to 315 mg/kg. If it is not tolerated, the dose is decreased to 60 mg/kg. The pattern continues with the next decision point: if 315 mg/kg is well-tolerated, the dose is increased to the maximum of 500 mg/kg. If 315 mg/kg is not tolerated, the dose is decreased to 200 mg/kg.
The compounds would be considered not tolerated if three or more adverse effects (or any severe adverse effect) occurred at specific dose during the entire period of 60 mins. […] Mild—slight decrease in activity, responsive when provoked. Moderate—decrease in activity, less responsive when provoked.

Row | SMILES | % Agonism Orx2 at Relative IC50 (Orx2) [%] | IC50 (Orx2) [µM] | % Cell viability at IC50 (cells) [%] | % Agonism on Orx1 at OR2 IC50 (Orx1) [%] | IC50 Dilution of Orx2 (fold dilution) (Orx2) | 15 min effects (adverse effects) (male Sprague-Dawley rat; 30 mg/kg p.o.) | 30 min effects (adverse effects) (male Sprague-Dawley rat; 30 mg/kg p.o.) | 60 min effects (adverse effects) (male Sprague-Dawley rat; 30 mg/kg p.o.) | 15 min effects (adverse effects) (male Sprague-Dawley rat; 100 mg/kg p.o.) | 30 min effects (adverse effects) (male Sprague-Dawley rat; 100 mg/kg p.o.) | 60 min effects (adverse effects) (male Sprague-Dawley rat; 100 mg/kg p.o.) | 15 min effects (adverse effects) (male Sprague-Dawley rat; 315 mg/kg p.o.) | 30 min effects (adverse effects) (male Sprague-Dawley rat; 315 mg/kg p.o.) | 60 min effects (adverse effects) (male Sprague-Dawley rat; 315 mg/kg p.o.) | 15 min effects (adverse effects) (male Sprague-Dawley rat; 500 mg/kg p.o.) | 30 min effects (adverse effects) (male Sprague-Dawley rat; 500 mg/kg p.o.) | 60 min effects (adverse effects) (male Sprague-Dawley rat; 500 mg/kg p.o.) | tolerability (male Sprague-Dawley rat)
1 | COc1cc(-c2oc3c(OC)c(O[C@@H]4O[C@H](COC(C)=O)[C@@H](O)[C@H](O)[C@H]4O[C@@H]4O[C@@H](C)[C@H](O)[C@@H](O)[C@H]4O)cc(O)c3c(=O)c2O)ccc1O [Compound 25, [(2R,3S,4S,5R,6S)-6-[3,5-dihydroxy-2-(4-hydroxy-3-methoxyphenyl)-8-methoxy-4-oxochromen-7-yl]oxy-3,4-dihydroxy-5-[(2S,3R,4R,5R,6S)-3,4,5-trihydroxy-6-methyloxan-2-yl]oxyoxan-2-yl]methyl acetate] | 50 | 148 | 91.68 | 103.7053 |  |  |  |  |  |  |  |  |  |  |  |  |  | 
2 | O=c1c(O)c(-c2ccc(O)cc2)oc2cc(O)cc(O)c12 [Compound 12, 3,5,7-trihydroxy-2-(4-hydroxyphenyl)chromen-4-one] | 65 | 53.3 | 80.39 | 64.4 | 7039.1 |  |  |  |  |  |  |  |  |  |  |  |  | 
3 | C[C@@H]1O[C@@H](O[C@H]2[C@H](Oc3c(-c4ccc(O)cc4)oc4cc(O)cc(O)c4c3=O)O[C@H](CO)[C@@H](O)[C@@H]2O)[C@H](O)[C@H](O)[C@H]1O [Compound 23, 3-[(2S,3R,4S,5S,6R)-4,5-dihydroxy-6-(hydroxymethyl)-3-[(2S,3R,4R,5R,6S)-3,4,5-trihydroxy-6-methyloxan-2-yl]oxyoxan-2-yl]oxy-5,7-dihydroxy-2-(4-hydroxyphenyl)chromen-4-one] | 50 | 174 | 107.68 | 104.1268 |  |  |  |  |  |  |  |  |  |  |  |  |  | 
4 | O=c1c(O[C@@H]2O[C@@H](CO)[C@H](O)[C@H]2O)c(-c2ccc(O)cc2)oc2cc(O)cc(O)c12 [Compound 27, 3-[(2S,3R,4R,5S)-3,4-dihydroxy-5-(hydroxymethyl)oxolan-2-yl]oxy-5,7-dihydroxy-2-(4-hydroxyphenyl)chromen-4-one] | 45 | 154 | 101.69 | 56.18 |  |  |  |  |  |  |  |  |  |  |  |  |  | 
5 | O=c1c(O[C@@H]2OC[C@H](O)[C@H](O)[C@H]2O)c(-c2ccc(O)cc2)oc2cc(O)cc(O)c12 [Compound 26, 5,7-dihydroxy-2-(4-hydroxyphenyl)-3-[(2S,3R,4S,5S)-3,4,5-trihydroxyoxan-2-yl]oxychromen-4-one] | 40 | 179 | 98.95 | 60.57 |  | Reduced activity | No adverse effects | Reduced activity (3/3) | Reduced activity | Reduced activity | Reduced activity (3/3) | No adverse effects | No adverse effects | No adverse effects | No adverse effects | Reduced activity | No adverse effects | well-tolerated
6 | O=c1cc(-c2ccc(O)c(O)c2)oc2cc(O)cc(O)c12 [Compound 13, 2-(3,4-dihydroxyphenyl)-5,7-dihydroxychromen-4-one] | 50 | 72.5 | 98.24 | 42.72 | 2283.9 | No adverse effects | No adverse effects | Reduced activity (3/3) | No adverse effects | Reduced activity | No adverse effects | No adverse effects | No adverse effects | No adverse effects | Pica (2/3) | Reduced activity; also recorded: Pica (2/3) | Reduced activity (1/3) | well-tolerated
7 | CC1O[C@@H](OC2C(O)[C@H](Oc3c(-c4ccc(O)cc4)oc4cc(O)cc(O)c4c3=O)OC(CO)[C@H]2O)[C@@H](O)C(O)[C@H]1O (stereo partly drawn) [Compound 24, 3-[(2S,5R)-3,5-dihydroxy-6-(hydroxymethyl)-4-[(2S,3S,5R)-3,4,5-trihydroxy-6-methyloxan-2-yl]oxyoxan-2-yl]oxy-5,7-dihydroxy-2-(4-hydroxyphenyl)chromen-4-one] | 45 | 191 | 96.12 | 48.83 |  |  |  |  |  |  |  |  |  |  |  |  |  | 

— patent US20250281451A1, “COMPOSITIONS AND METHODS FOR MODULATING SLEEP AND USES THEREOF” (Brightseed, Inc., priority 2022, published 2025)
